According to patent US10463685B2, “Telomerase mediated telomere altering compounds” (The Board of Regents of The University of Texas System, priority 2013, dated 2019):
Where two headings read alike, the source gives them in different places. [tNP] = thio-phosphoramidate internucleoside linkage; {Palm} = palmitoyl group

Legend:
HCT116 cells [1] = experiment: Telomere length assay (TRF), long-term culture; format: cell-based, human
Experimental: (§1) For long-term cellular experiments, HCT116 (1,000 cells/cm^2) and BJ (10,000 cells/cm^2) cells were fed with 6-thio-dG (1, 3, 10 μM) containing medium every three days. The cells were counted and replated every week for 10-16 weeks. Additionally, HCT116 cells (1,000 cells/cm^2) were fed with 6-thio-G (1, 3, 10 μM) every three days and each week cells were counted, collected for TRF (Telomere Restriction Fragment) analysis and replated. HCT116 cells, following treatment with 10 μM 6-thio-dG for 12 weeks, were then treated with a combination of 10 μM 6-thio-dG and […] GRN163L for 2-4 weeks.
1×10^6 cells were collected and washed with PBS. DNA was isolated using the manufacturer's instructions (Qiagen, Valencia, Calif.). 2.5 μg DNA was digested with six different restriction enzymes (HhaI, HinfI, MspI, HaeIII, RsaI, AluI) (New England Bio, Ipswich, Mass.) and incubated at 37° C. overnight. Digested DNA was separated on a 0.7% agarose gel overnight at 70 V. The terminal restriction fragment (TRF) gel was denatured for 20 min in denaturating solution (0.5 M NaOH, 1.5 M NaCl, pH 13.2) and dried on Whatman 3 MM paper under vacuum for 3 hours at 56° C. The gel was neutralized for 15 minutes in neutralization buffer (1.5 M NaCl, 0.5 M Tris-HCl, pH 8.0) and then probed with a radiolabeled telomeric probe (C-rich) for 16 hours at 42° C. in 5×SSC buffer, 5×Denhardt's solution, 10 mmol/L Na2HPO4, and 1 mmol/L Na2H2P2O7. The gel was washed once with 2×SSC, 0.1% SDS, twice with 0.5×SSC, 0.1% SDS and then twice with 0.5×SSC, 1% SDS at room temperature for 15 min. Gels were exposed to a PhosphorImager screen overnight and analyzed using a Typhoon PhosphorImager scanner system (Molecular Dynamics).
To determine if 6-thio-dG and 6-thio-G causes progressive telomere shortening, telomere lengths of treated cells were evaluated by TRF assay. Cancer HCT116 and normal BJ fibroblast cells were treated with 1 μM or 10 μM of 6-thio-dG for 1-12 weeks every 3 days. In addition, HCT116 cells were also treated with 1 μM or 10 μM 6-thio-G for 1-10 weeks every 3 days to determine if there is any effect of this molecule on telomeric length maintenance. The control was untreated. Each week samples were collected for TRF analysis at 1×10^6 cells/sample at 1, 5, and 12 weeks for cells treated with 6-thio-dG and 1, 5, and 10 for cells treated with 6-thio-G.
HCT116 cells were treated with either 10 μM 6-thio-dG alone for 12-16 weeks, or with 3 μM GRN163L alone for 11 weeks. Then, these long term 6-thio-dG treated surviving cells were cultured with a combination of 6-thio-dG (10 μM) and/or GRN163L (3 μM) for 2-4 additional weeks. […] Specifically, the HCT116 cells were treated beyond the 12 weeks of 6-thio-dG treatment with either GRN163L only or GRN163L+6-thio-dG, for an additional 2 and 4 weeks to determine if there is an effect on telomere length.

Toxicity testing in rats = format: in vivo; conditions: for mortality: rats
Experimental: Six rats were treated with 15 mg of 6-thio-dG/kg of body weight every two days. […] Another 5 rats were treated with 50 mg of 6-thio-dG/kg of body weight every other day. All rats died after 12 days.

HCT116 cells [2] = experiment: TIF assay, gamma-H2AX and TRF2 immuno-staining; format: cell-based, human; conditions: HCT116, 3 μM
Experimental: Briefly, HCT116 cells were plated in 4-well chamber slides and after the cells attached to the surface, either 3 μM 6-thio-dG or 3 μM 6-thio-G was added to the medium at different time points (0, 30 min, 12 h, 24 h, 48 h, 72 h). […] TIFs were quantified using Imaris software.
Cancer HCT116 cells were seeded in chamber slides. Following cell attachment, 6-thio-dG (3 μM) and 6-thio-G (3 μM) were added to fresh medium at various time points (0, 30 min, 2 h, 12 h, 24 h, 48 h, 72 h). To test if 6-thio-dG and 6-thio-G cause telomere dysfunction in cancer cells, TIF analysis was conducted. […] 6-thio-dG treatment causes a 2.8-fold increase in telomeric DNA damage as compared to 6-thio-G after 72 h (FIG. 4).

BJ fibroblast cells = experiment: Telomere length assay (TRF), long-term culture; format: cell-based, human; conditions: BJ fibroblasts, 10 weeks
Experimental: as §1
1×10^6 cells were collected and washed with PBS. DNA was isolated using the manufacturer's instructions (Qiagen, Valencia, Calif.). 2.5 μg DNA was digested with six different restriction enzymes (HhaI, HinfI, MspI, HaeIII, RsaI, AluI) (New England Bio, Ipswich, Mass.) and incubated at 37° C. overnight. […] Gels were exposed to a PhosphorImager screen overnight and analyzed using a Typhoon PhosphorImager scanner system (Molecular Dynamics).
To determine if 6-thio-dG and 6-thio-G causes progressive telomere shortening, telomere lengths of treated cells were evaluated by TRF assay. […]

HCT116 cells [3] = experiment: Cell count and morphology after one week of treatment; format: cell-based, human; conditions: 3 μM, twice during one week
Description: HCT116 represents a human colon cancer cells, A549 models human lung epithelial cancer cells, H2882 models human lung epithelial cancer cells, HCC2429 models human lung epithelial cancer cells, HCC827 models human lung epithelial cancer cells, HCC15 models human lung epithelial cancer cells, H2087 models human lung epithelial cancer cells, HCC4017 models human lung epithelial cancer cells, HCC515 models human lung epithelial cancer cells, H2009 models human lung epithelial cancer cells, BJ-hTERT cells model telomerase expressing normal human fibroblast cells, and BJ human fibroblasts (telomerase silent) were grown in a Media X (Hyclone, Logan, Utah) supplemented with 10% cosmic calf serum (Hyclone).
Cancer HCT116 and normal BJ fibroblast cells were treated with 6-thio-dG (3 μM) and 6-thio-G (3 μM) twice during one week. Following one week of the treatment, cell morphology was monitored, and then the cells were collected and counted.

[4] = system: A549 human lung cancer cells; experiment: Tumor growth in xenograft animal model; format: in vivo, mice; conditions: 2.5 mg/kg every day
Experimental: Doses of 2.5 mg/kg of 6-thio-dG and 2.5 mg/kg of 6-thio-G were injected every day into mice after tumor implantation and providing time for tumor initiation. DMSO injections were used for the control. The volume of the tumor was measured.

[5] = format: in vivo
Experimental: Six WT mice were treated with 1.67 mg of 6-thio-dG/kg of body weight daily. Six WT mice were treated with 1.67 mg of 6-thio-G/kg of body weight daily. Six WT mice were treated with 5 mg of 6-thio-dG/kg of body weight daily. Six WT mice were treated with 5 mg of 6-thio-G/kg of body weight daily. The mice were given the appropriate dosage and weighed daily for 25 days. […] In comparison, the mice receiving 6-thio-G at the same dose lost between 1-2 grams (6-12% of initial weight) over the course of the 25 day treatment. […] In comparison, the mice receiving 6-thio-G at the same dose loss around 2 grams and all mice died by the 15th day of treatment.

| Compound | telomere length on continued treatment (HCT116 cells [1]; HCT116, 10 μM, 12 weeks versus 16 weeks) | telomere shortening (TRF) (HCT116 cells [1]; HCT116, 1 or 10 μM every 3 days, one week and five weeks) | telomere length after return to medium without drug (HCT116 cells [1]; HCT116, 12 weeks 6-thio-dG, then no drug for 2-4 weeks) | signs of impaired function in remaining animals (Toxicity testing in rats; rat, in vivo, 15 mg/kg) | mortality (Toxicity testing in rats; 15 mg/kg every two days, after 6 injections, six rats) | mortality (Toxicity testing in rats; 50 mg/kg every other day, after 12 days, 5 rats) | genomic DNA damage compared to 6-thio-G (HCT116 cells [2]) | telomere shortening (TRF) compared to untreated control (BJ fibroblast cells) | cell count / cell death (HCT116 cells [3]) | histology of the residual tumors [4] | rate of tumor growth (tumor volume) compared to the control and 6-thio-G [4] | mortality ([5]; WT mice, 5 mg/kg daily, by the 15th day of treatment) | weight lost ([5]; mouse, in vivo, 5 mg/kg) | telomere shortening (TRF) compared to the control (HCT116 cells [1]; HCT116, 3 μM alone, after 11 weeks) | telomere shortening compared with cells cultured with 6-thio-dG for 12, 14 and 16 weeks (HCT116 cells [1]; HCT116, after 12 weeks of 10 μM 6-thio-dG, additional 2 and 4 weeks of treatment) |
| --- | --- | --- | --- | --- | --- | --- | --- | --- | --- | --- | --- | --- | --- | --- | --- |
| Nc1nc2c(ncn2[C@H]2C[C@H](O)[C@@H](CO)O2)c(=S)[nH]1 [6-thio-dG, 6-thio-deoxyguanosine] | stabilized telomeres | telomere shortening was detectable | remained about the same | no signs of impaired function | One rat died | All rats died | overall increase in genomic DNA damage | did not show enhanced telomere shortening | death of the vast majority of HCT116 cells | mostly fibrotic and often associated with apoptotic and inflammatory cells | rate of tumor growth was less |  |  |  |  |
| Nc1nc2nc[nH]c2c(=S)[nH]1 [6-thio-G, 6-thioguanine, reference compound] |  |  |  |  |  |  |  | did not show enhanced telomere shortening |  | mostly “healthy” growing cancerous cells |  | all mice died | around 2 grams |  |  |
| GRN163L: 13-mer thio-phophoramidate oligonucleotide 5′-TAGGGTTAGACAA-3′ with polmitoyl group at the 5′-end; direct competitive inhibitor of telomerase (all [tNP], 5' {Palm}, sugars by position and methylation of C not given here) [reference compound] |  |  |  |  |  |  |  |  |  |  |  |  |  | did not show any significant telomere shortening | increased telomere shortening |
